Broadly, the Ki is a dissociation constant, usually derived from enzyme kinetics or from competition with a known ligand.

The assay has as its target DNA-PK (Homo sapiens, UniProt P78527). Put plainly: DNA-PK Inhibition Assay (standard radiometric kinase assay, 33P-ATP, peptide substrate). It is filed as biochemical. The note with it: radiometric assay, approximately 6 nM DNA-PK, 100 μM ATP, 45 min; fit to competitive tight-binding inhibition; read-out: Ki for the inhibition of DNA-PK. The method in brief:
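Radiometric transfer of 33P from ATP (100 μM) to peptide substrate (0.8 mg/mL) by about 6 nM DNA-PK with 10 μg/mL sheared dsDNA, pH 7.5 HEPES/MgCl2, 45 min, phosphoric acid quench, filter capture and scintillation counting. Ki fitted to a competitive tight-binding inhibition model.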
As to `CC(C)(O)c1ncc(N[C@H]2CC[C@@H](Oc3cc(N4CCOCC4)cc4nccnc34)CC2)cn1` [Compound 341], the inhibition constant (Ki) is below 100 nM. The result for `c1cnc2c(O[C@H]3CC[C@@H](Nc4ccc5c(n4)OCCO5)CC3)cc(N3CCOCC3)cc2n1` [Compound 631] reads below 100 nM. Turning to `OCc1cc(N[C@H]2CC[C@@H](Oc3cc(N4CCOCC4)cc4nccnc34)CC2)ncn1` [Compound 424], the Ki was below 100 nM. The result for `Cc1cc(C)n2nc(N[C@H]3CC[C@@H](Oc4cc(N5CCOCC5)cc5nccnc45)CC3)nc2n1` [Compound 299] reads below 100 nM. For `Cn1ccc(N[C@H]2CC[C@@H](Oc3cc(N4CCOCC4)cc4nccnc34)CC2)cc1=O` [Compound 311], the Ki is below 100 nM. Consider `c1cc(N[C@H]2CC[C@@H](Oc3cc(N4CCOCC4)cc4nccnc34)CC2)nc(CN2CCCCC2)n1` [Compound 496], for which the Ki is below 100 nM. Take `CN(C)CCNC(=O)c1cnc(N[C@H]2CC[C@@H](Oc3cc(N4CCOCC4)cc4nccnc34)CC2)nc1` [Compound 328]: the Ki is below 100 nM. `COC(=O)c1cc(N[C@H]2CC[C@@H](Oc3cc(N4CCOCC4)cc4nccnc34)CC2)ncc1O` [Compound 404]: the Ki was below 100 nM. The result for `c1cnc2c(O[C@H]3CC[C@@H](Nc4ncnc5[nH]ccc45)CC3)cc(N3CCOCC3)cc2n1` [Compound 515] reads below 100 nM; that for `COc1nc(N[C@H]2CC[C@@H](Oc3cc(N4CCOCC4)cc4nccnc34)CC2)nc(OC)n1` [Compound 608], below 100 nM; that for `CNC(=O)c1cc(N[C@H]2CC[C@@H](Oc3cc(C4=CCOCC4)cc4nccnc34)CC2)ncn1` [Compound 321], below 100 nM.

`COc1nc(N[C@H]2CC[C@@H](Oc3cc(N4CCOCC4)cc4nccnc34)CC2)c2cc[nH]c2n1` [Compound 383]: the Ki is below 100 nM.

In the case of `Cc1cnc2c(O[C@H]3CC[C@@H](Nc4ncc(C5CCN(C)CC5)cn4)CC3)cc(N3CCOCC3)cc2n1` [Compound 543], the inhibition constant Ki is below 100 nM. The result for `Cc1noc(-c2ccc(N[C@H]3CC[C@@H](Oc4cc(N5CCOCC5)cc5nccnc45)CC3)nc2)n1` [Compound 278] reads below 100 nM; that for `Clc1nc(N[C@H]2CC[C@@H](Oc3cc(N4CCOCC4)cc4nccnc34)CC2)c2cn[nH]c2n1` [Compound 423], below 100 nM.

Consider `CN1CCN(C(=O)N[C@H]2CC[C@@H](Oc3cc(N4CCOCC4)cc4nccnc34)CC2)CC1` [Compound 414], for which the Ki was below 100 nM.

As to `COCCOc1ccc(N[C@H]2CC[C@@H](Oc3cc(N4CCOCC4)cc4nccnc34)CC2)nc1` [Compound 625], the Ki is below 100 nM. Consider `Clc1ccnc(N[C@H]2CC[C@@H](Oc3cc(N4CCOCC4)cc4nccnc34)CC2)n1` [Compound 532], for which the Ki was below 100 nM. Turning to `c1cnc2c(O[C@H]3CC[C@@H](Nc4ncc(CN5CCCCC5)cn4)CC3)cc(N3CCOCC3)cc2n1` [Compound 495], the Ki is below 100 nM. The result for `CN(C)c1ccnc(N[C@H]2CC[C@@H](Oc3cc(N4CCOCC4)cc4nccnc34)CC2)n1` [Compound 489] reads below 100 nM; that for `Cc1csc(N[C@H]2CC[C@@H](Oc3cc(N4CCOCC4)cc4nccnc34)CC2)n1` [Compound 284], below 100 nM. `CC(C)c1ccnc(N[C@H]2CC[C@@H](Oc3cc(N4CCOCC4)cc4nccnc34)CC2)n1` [Compound 634]: the Ki was below 100 nM.

In the case of `CN(C)Cc1cc(N[C@H]2CC[C@@H](Oc3cc(N4CCOCC4)cc4nccnc34)CC2)ncn1` [Compound 390], the Ki is below 100 nM. On to `c1cc(N[C@H]2CC[C@@H](Oc3cc(N4CCOCC4)cc4nccnc34)CC2)ncn1` [Compound 486], for which the Ki is below 100 nM. The result for `CN1CCC[C@H]1CNc1ncnc(N[C@H]2CC[C@@H](Oc3cc(N4CCOCC4)cc4nccnc34)CC2)c1F` [Compound 359] reads below 100 nM; that for `CN1CC[C@@H](Nc2ncnc(N[C@H]3CC[C@@H](Oc4cc(N5CCOCC5)cc5nccnc45)CC3)c2F)C1` [Compound 327], below 100 nM; that for `Cc1nc2c(c(N[C@H]3CC[C@@H](Oc4cc(N5CCOCC5)cc5nccnc45)CC3)n1)COC2` [Compound 452], below 100 nM. For `CN(C)Cc1cnc(N[C@H]2CC[C@@H](Oc3cc(N4CCOCC4)cc4nccnc34)CC2)nc1` [Compound 529] the value was below 100 nM; for `c1cnc2c(O[C@H]3CC[C@@H](Nc4ncc(CCN5CCOCC5)cn4)CC3)cc(N3CCOCC3)cc2n1` [Compound 434], below 100 nM; for `COCCOc1ccnc(N[C@H]2CC[C@@H](Oc3cc(N4CCOCC4)cc4nccnc34)CC2)n1` [Compound 558], below 100 nM.

Consider `Fc1cncnc1N[C@H]1CC[C@@H](Oc2cc(N3CCOCC3)cc3nccnc23)CC1` [Compound 531], for which the Ki was below 100 nM. Consider `CN(C)c1ccc(N[C@H]2CC[C@@H](Oc3cc(N4CCOCC4)cc4nccnc34)CC2)nn1` [Compound 598], for which the Ki was below 100 nM.

On to `c1cnc2c(O[C@H]3CC[C@@H](Nc4cc5[nH]ccc5cn4)CC3)cc(N3CCOCC3)cc2n1` [Compound 540], for which the Ki is below 100 nM. The result for `c1cnc2c(O[C@H]3CC[C@@H](Nc4ccnc5[nH]ccc45)CC3)cc(N3CCOCC3)cc2n1` [Compound 385] reads below 100 nM; that for `CNc1nc(N[C@H]2CC[C@@H](Oc3cc(N4CCOCC4)cc4nccnc34)CC2)cc(=O)[nH]1` [Compound 400], below 100 nM; that for `c1ncc(N[C@H]2CC[C@@H](Oc3cc(N4CCOCC4)cc4nccnc34)CC2)cn1` [Compound 575], below 100 nM. As for `c1cnc2c(O[C@H]3CC[C@@H](Nc4ccc(OC5COC5)cn4)CC3)cc(N3CCOCC3)cc2n1` [Compound 638], the Ki is below 100 nM.

As for `CCN(CC)C(=O)N[C@H]1CC[C@@H](Oc2cc(N3CCOCC3)cc3nccnc23)CC1` [Compound 413], the Ki is below 100 nM.

In the case of `CNC(=O)c1ccc(N[C@H]2CC[C@@H](Oc3cc(N4CCOCC4)cc4nccnc34)CC2)cn1` [Compound 358], the Ki was below 100 nM. For `Cc1ncc(N)c(N[C@H]2CC[C@@H](Oc3cc(N4CCOCC4)cc4nccnc34)CC2)n1` [Compound 369] the value was below 100 nM; for `Cn1cnc2c(N[C@H]3CC[C@@H](Oc4cc(N5CCOCC5)cc5nccnc45)CC3)ncnc21` [Compound 546], below 100 nM. For the compound `CN1CCC(c2cnc(N[C@H]3CC[C@@H](Oc4cc(N5CCOCC5)cc5nccnc45)CC3)nc2)C1` (stereo partly drawn) [Compound 568], the Ki was below 100 nM. The result for `CN1CCN(c2nccc(N[C@H]3CC[C@@H](Oc4cc(N5CCOCC5)cc5nccnc45)CC3)n2)CC1` [Compound 535] reads below 100 nM; that for `c1nc(N[C@H]2CC[C@@H](Oc3cc(N4CCOCC4)cc4nccnc34)CC2)cc(-c2nnco2)n1` [Compound 566], below 100 nM; that for `CN(C)CCOc1ncnc(N[C@H]2CC[C@@H](Oc3cc(N4CCOCC4)cc4nccnc34)CC2)c1F` [Compound 362], below 100 nM. The result for `Cc1cc2nc(N[C@H]3CC[C@@H](Oc4cc(N5CCOCC5)cc5nccnc45)CC3)cc(=O)n2o1` [Compound 596] reads below 100 nM; that for `c1cnc2c(O[C@H]3CC[C@@H](Nc4cncc5nccn45)CC3)cc(N3CCOCC3)cc2n1` [Compound 336], below 100 nM. For `Oc1nc(N[C@H]2CC[C@@H](Oc3cc(N4CCOCC4)cc4nccnc34)CC2)nc(C2CC2)n1` [Compound 600] the value was below 100 nM.
